Measurements reported in patent publication US7109193B2, “Tricyclic diazepines tocolytic oxytocin receptor antagonists” (Wyeth, priority 2001, dated 2006).

Molecular target: T1, human vasopressin V1a receptor subtype (Homo sapiens, UniProt P37288)
T1 construct: host or cells: CHO cells (pZeoSV vector for the Thibonnier line)
Assay: Vasopressin binding in Chinese Hamster Ovary cell membranes expressing human vasopressin V1a subtype receptors
Conditions: 100 nM, CHO cell membranes, [3H]Manning ligand, values without parentheses
Procedure, shortened: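 Membranes from CHO cells expressing human V1a receptor were incubated with [3H]Manning ligand (added as 20 μL of 8 nM) in pH 7.4 Tris buffer with MgCl2, BSA and protease inhibitors, 60 min at room temperature. Bound radioactivity was counted after filtration; values are percent inhibition at a stated concentration or IC50.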

T1 sequence (P37288 whole entry): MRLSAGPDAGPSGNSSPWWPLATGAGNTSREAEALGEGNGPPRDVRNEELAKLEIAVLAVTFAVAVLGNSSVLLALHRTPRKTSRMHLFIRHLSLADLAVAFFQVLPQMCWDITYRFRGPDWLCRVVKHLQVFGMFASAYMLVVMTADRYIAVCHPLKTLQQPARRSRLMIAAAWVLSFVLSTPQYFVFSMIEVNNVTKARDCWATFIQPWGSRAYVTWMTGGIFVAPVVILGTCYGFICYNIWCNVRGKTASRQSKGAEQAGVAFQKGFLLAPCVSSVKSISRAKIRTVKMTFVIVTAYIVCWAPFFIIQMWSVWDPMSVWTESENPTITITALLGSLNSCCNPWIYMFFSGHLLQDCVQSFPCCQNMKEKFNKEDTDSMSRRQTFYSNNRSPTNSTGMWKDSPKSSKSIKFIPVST

inhibition at 0.1 µM	SMILES
4%	COc1cc(C(=O)N2Cc3ccc(C(=O)N4CCN(C)CC4)n3Cc3ccccc32)ccc1-c1cccc2ccccc12 [Example 55, {10-[3-Methoxy-4-(1-naphthyl)benzoyl]-10,11-dihydro-5H-pyrrolo[2,1-c][1,4]benzodiazepin-3-yl}(4-methyl-1-piperazinyl)methanone]
5%	CC(C)N1CCN(C(=O)c2ccc3n2Cc2ccccc2N(C(=O)c2ccc(-c4cccc5ccccc45)cc2Cl)C3)CC1 [Example 243, {10-[2-Chloro-4-(1-naphthyl)benzoyl]-10,11-dihydro-5H-pyrrolo[2,1-c][1,4]benzodiazepin-3-yl}(4-isopropyl-1-piperazinyl)methanone]
-4%	COc1ccccc1-c1ccc(C(=O)N2Cc3ccc(C(=O)N[C@@H](CCCCNC(=O)OC(C)(C)C)C(N)=O)n3Cc3ccccc32)cc1OC [Example 303, tert-Butyl (5S)-6-amino-5-[({10-[(2,2′-dimethoxy[1,1′-biphenyl]-4-yl)carbonyl]-10,11-dihydro-5H-pyrrolo[2,1-c][1,4]benzodiazepin-3-yl}carbonyl)amino]-6-oxohexylcarbamate]
58%	Cc1ccccc1-c1ccc(C(=O)N2Cc3ccc(C(=O)NCCCN(C)C)n3Cc3ccccc32)cc1 [Example 76, N-[3-(Dimethylamino)propyl]-10-[(2′-methyl[1,1′-biphenyl]-4-yl)carbonyl]-10,11-dihydro-5H-pyrrolo[2,1-c][1,4]benzodiazepine-3-carboxamide]
5%	C=CCN1CCN(C(=O)c2ccc3n2Cc2ccccc2N(C(=O)c2ccc(-n4c(C)ccc4C)c(OC)c2)C3)CC1 [Example 318, (4-Allyl-1-piperazinyl){10-[4-(2,5-dimethyl-1H-pyrrol-1-yl)-3-methoxybenzoyl]-10,11-dihydro-5H-pyrrolo[2,1-c][1,4]benzodiazepin-3-yl}methanone]
8%	Cc1cc(C(=O)N2Cc3cccn3Cc3ccccc32)cc(C)c1-n1c(C)ccc1C [Example 30, [4-(2,5-Dimethyl-1H-pyrrol-1-yl)-3,5-dimethyl-phenyl][10,11-dihydro-5H-pyrrolo[2,1-c][1,4]benzodiazepin-10-yl]methanone]
7%	COc1cc(C(=O)N2Cc3ccc(C(=O)NCCC4CCCN4C)n3Cc3ccccc32)ccc1-n1c(C)ccc1C (stereo not shown) [Example 315, 10-[4-(2,5-Dimethyl-1H-pyrrol-1-yl)-3-methoxybenzoyl]-N-[2-(1-methyl-2-pyrrolidinyl)ethyl]-10,11-dihydro-5H-pyrrolo[2,1-c][1,4]benzodiazepine-3-carboxamide]
11%	COc1cc(C(=O)N2Cc3ccc(C(=O)N(C)CCN(C)C)n3Cc3ccccc32)ccc1-n1c(C)ccc1C [Example 309, N-[2-(Dimethylamino)ethyl]-10-[4-(2,5-dimethyl-1H-pyrrol-1-yl)-3-methoxybenzoyl]-N-methyl-10,11-dihydro-5H-pyrrolo[2,1-c][1,4]benzodiazepine-3-carboxamide]
24%	COc1ccccc1-c1ccc(C(=O)N2Cc3ccc(C(=O)N[C@@H](Cc4c[nH]cn4)C(N)=O)n3Cc3ccccc32)cc1C [Example 288, N-[(1S)-2-Amino-1-(1H-imidazol-4-ylmethyl)-2-oxoethyl]-10-[(2′-methoxy-2-methyl[1,1′-biphenyl]4-yl)carbonyl]-10,11-dihydro-5H-pyrrolo[2,1-c][1,4]benzodiazepine-3-carboxamide]
19%	COc1cccc(-c2ccc(C(=O)N3Cc4ccc(C(=O)N5CCCN(C)CC5)n4Cc4ccccc43)cc2OC)c1 [Example 70, {10-[(2,3′-Dimethoxy[1,1′-biphenyl]-4-yl)carbonyl]-10,11-dihydro-5H-pyrrolo[2,1-c][1,4]benzodiazepin-3-yl}(4-methyl-1,4-diazepan-1-yl)methanone]
5%	CN1CCN(C(=O)c2ccc3n2Cc2ccccc2N(C(=O)c2ccc(-c4cccc5ccccc45)cc2Cl)C3)CC1 [Example 58, {10-[2-Chloro-4-(1-naphthyl)benzoyl]-10,11-dihydro-5H-pyrrolo[2,1-c][1,4]benzodiazepin-3-yl}(4-methyl-1-piperazinyl)methanone]
9%	COc1cc(C(=O)N2Cc3ccc(C(=O)N4CCN(C(C)C)CC4)n3Cc3ccccc32)ccc1-n1c(C)ccc1C [Example 319, {10-[4-(2,5-Dimethyl-1H-pyrrol-1-yl)-3-methoxybenzoyl]-10,11-dihydro-5H-pyrrolo[2,1-c][1,4]benzodiazepin-3-yl}(4-isopropyl-1-piperazinyl)methanone]
12%	Cc1ccccc1-c1ccc(C(=O)N2Cc3ccc(C(=O)N4CCN(CCCN(C)C)CC4)n3Cc3ccccc32)cc1 [Example 249, {4-[3-(Dimethylamino)propyl]-1-piperazinyl}{10-[(2′-methyl[1,1′-biphenyl]-4-yl)carbonyl]-10,11-dihydro-5H-pyrrolo[2,1-c][1,4]benzodiazepin-3-yl}methanone]
53%	COc1cccc(-c2ccc(C(=O)N3Cc4ccc(C(=O)N5CCN(CCCN(C)C)CC5)n4Cc4ccccc43)cc2OC)c1 [Example 255, {10-[(2,3′-Dimethoxy[1,1′-biphenyl]-4-yl)carbonyl]-10,11-dihydro-5H-pyrrolo[2,1-c][1,4]benzodiazepin-3-yl}{4-[3-(dimethylamino)propyl]-1-piperazinyl}methanone]
0%	COc1cccc(-c2cc(OC)c(C(=O)N3Cc4ccc(C(=O)N[C@@H](Cc5c[nH]cn5)C(N)=O)n4Cc4ccccc43)cc2Cl)c1 [Example 287, N-[(1S)-2-Amino-1-(1H-imidazol-4-ylmethyl)-2-oxoethyl]-10-[(6-chloro-3,3′-dimethoxy[1,1′-biphenyl]-4-yl)carbonyl]-10,11-dihydro-5H-pyrrolo[2,1-c][1,4]benzodiazepine-3-carboxamide]
13%	COc1cccc(-c2ccc(C(=O)N3Cc4ccc(C(=O)N5CCCN(C)CC5)n4Cc4ccccc43)cc2C)c1 [Example 64, {10-[(3′-Methoxy-2-methyl[1,1′-biphenyl]-4-yl)carbonyl]-10,11-dihydro-5H-pyrrolo[2,1-c][1,4]benzodiazepin-3-yl}(4-methyl-1,4-diazepan-1-yl)methanone]
38%	COc1ccccc1-c1ccc(C(=O)N2Cc3ccc(C(=O)N[C@@H](Cc4c[nH]cn4)C(N)=O)n3Cc3ccccc32)cc1 [Example 285, N-[(1S)-2-Amino-1-(1H-imidazol-4-ylmethyl)-2-oxoethyl]-10-[(2′-methoxy[1,1′-biphenyl]-4-yl)carbonyl]-10,11-dihydro-5H-pyrrolo[2,1-c][1,4]benzodiazepine-3-carboxamide]
6%	COc1cc(C(=O)N2Cc3ccc(C(=O)NCCN4CCCCC4)n3Cc3ccccc32)ccc1-n1c(C)ccc1C [Example 314, 10-[4-(2,5-Dimethyl-1H-pyrrol-1-yl)-3-methoxybenzoyl]-N-[2-(1-piperidinyl)ethyl]-10,11-dihydro-5H-pyrrolo[2,1-c][1,4]benzodiazepine-3-carboxamide]
8%	COc1cccc(-c2cc(OC)c(C(=O)N3Cc4ccc(C(=O)N5CCN(CCCN(C)C)CC5)n4Cc4ccccc43)cc2Cl)c1 [Example 252, {10-[(6-Chloro-3,3′-dimethoxy[1,1′-biphenyl]-4-yl)carbonyl]-10,11-dihydro-5H-pyrrolo[2,1-c][1,4]benzodiazepin-3-yl}{4-[3-(dimethylamino)propyl]-1-piperazinyl}methanone]
